Structures can show the parent of a compound that is named as a salt.
Legend:
Format in all cases: biochemical
[1] = biological target: T1, recombinant human DAO (diamine oxidase) (Homo sapiens, UniProt P19801); test: Activity on recombinant human DAO, method similar to the VAP-1 assay; conditions: substrate 1 mM putrescine; read-out: Inhibitory Activity (IC50, nM) DAO
T1 construct: purchased R&D systems
T1 sequence (P19801 20-751): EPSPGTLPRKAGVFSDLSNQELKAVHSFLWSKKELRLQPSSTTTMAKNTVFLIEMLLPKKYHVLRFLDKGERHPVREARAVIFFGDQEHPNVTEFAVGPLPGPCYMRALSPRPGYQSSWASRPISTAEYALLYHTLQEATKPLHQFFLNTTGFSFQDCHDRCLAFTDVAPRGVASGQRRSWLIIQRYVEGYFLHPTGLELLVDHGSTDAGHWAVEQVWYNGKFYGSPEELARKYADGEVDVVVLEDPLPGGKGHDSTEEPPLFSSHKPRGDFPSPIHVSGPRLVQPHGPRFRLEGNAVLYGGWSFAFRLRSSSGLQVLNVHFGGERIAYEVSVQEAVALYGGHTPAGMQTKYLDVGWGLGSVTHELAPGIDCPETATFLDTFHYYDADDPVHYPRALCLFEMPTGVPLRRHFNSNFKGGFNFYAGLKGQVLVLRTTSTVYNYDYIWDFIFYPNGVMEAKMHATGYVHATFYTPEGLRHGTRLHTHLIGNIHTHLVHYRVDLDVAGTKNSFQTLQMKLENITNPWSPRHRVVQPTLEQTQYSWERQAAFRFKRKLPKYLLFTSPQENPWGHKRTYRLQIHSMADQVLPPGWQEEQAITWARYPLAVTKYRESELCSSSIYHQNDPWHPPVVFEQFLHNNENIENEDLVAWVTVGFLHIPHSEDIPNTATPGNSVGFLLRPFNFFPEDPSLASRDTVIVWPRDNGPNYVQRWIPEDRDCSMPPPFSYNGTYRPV
Procedure, shortened: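 Inhibition of recombinant human diamine oxidase (DAO, R&D systems) was assessed by the same approach as the VAP-1 assay, using 1 mM putrescine as substrate. Hydrogen peroxide formed was detected through an HRP-coupled Amplex Red reaction yielding fluorescent resorufin, read at 544 nm excitation and 590 nm emission. IC50 values came from four-parameter logistic fitting in GraphPad Prism.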

recombinant human VAP-1 = biological target: T2, recombinant human VAP-1 (Homo sapiens, UniProt Q16853); test: Activity on recombinant human VAP-1, HRP-coupled Amplex Red hydrogen peroxide assay; conditions: substrate 1 mM benzylamine; compound incubated with enzyme at 37° C. for 30 minutes; pH 7.4; read-out: Inhibitory Activity (IC50, nM) human VAP-1
T2 construct: purchased R&D systems
T2 sequence (Q16853 1-763): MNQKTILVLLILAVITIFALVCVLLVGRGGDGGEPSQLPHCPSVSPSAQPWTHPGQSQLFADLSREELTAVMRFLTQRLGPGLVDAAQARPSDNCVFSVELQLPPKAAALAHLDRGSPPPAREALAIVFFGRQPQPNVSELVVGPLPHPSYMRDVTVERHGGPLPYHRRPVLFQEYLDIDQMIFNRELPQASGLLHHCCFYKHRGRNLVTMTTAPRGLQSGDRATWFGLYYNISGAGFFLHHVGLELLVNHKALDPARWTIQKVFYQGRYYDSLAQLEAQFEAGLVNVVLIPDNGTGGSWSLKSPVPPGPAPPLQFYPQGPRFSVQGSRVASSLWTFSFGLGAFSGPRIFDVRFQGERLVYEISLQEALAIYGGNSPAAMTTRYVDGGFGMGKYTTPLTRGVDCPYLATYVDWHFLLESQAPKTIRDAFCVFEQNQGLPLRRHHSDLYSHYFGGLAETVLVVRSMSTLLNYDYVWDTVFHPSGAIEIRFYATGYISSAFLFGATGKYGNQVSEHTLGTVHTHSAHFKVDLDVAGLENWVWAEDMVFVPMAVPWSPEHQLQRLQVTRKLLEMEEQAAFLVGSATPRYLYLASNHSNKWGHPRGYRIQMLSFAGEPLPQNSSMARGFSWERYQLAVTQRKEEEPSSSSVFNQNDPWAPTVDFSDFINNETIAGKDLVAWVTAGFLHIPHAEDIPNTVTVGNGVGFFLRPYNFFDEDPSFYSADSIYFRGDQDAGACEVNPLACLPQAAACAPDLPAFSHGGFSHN
Procedure, shortened: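 8-point 1:3 dilutions, final DMSO <1%; 30 min enzyme preincubation, 37 °C, pH 7.4 phosphate. Start: 1 mM benzylamine + 200 uM Amplex Red + 1 U/mL HRP. Read ex544/em590 over 1-2 h; % rate decrease vs DMSO control, 4-parameter logistic IC50.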

[2] = biological target: T3, recombinant human MAO-A (monoamine oxidase-A) (Homo sapiens, UniProt P21397); test: Activity on recombinant human MAO-A, method similar to the VAP-1 assay; conditions: substrate 0.5 mM tyramine; read-out: Inhibitory Activity (IC50, nM) MAO-A
T3 construct: purchased Sigma-Aldrich
T3 sequence (P21397 1-527): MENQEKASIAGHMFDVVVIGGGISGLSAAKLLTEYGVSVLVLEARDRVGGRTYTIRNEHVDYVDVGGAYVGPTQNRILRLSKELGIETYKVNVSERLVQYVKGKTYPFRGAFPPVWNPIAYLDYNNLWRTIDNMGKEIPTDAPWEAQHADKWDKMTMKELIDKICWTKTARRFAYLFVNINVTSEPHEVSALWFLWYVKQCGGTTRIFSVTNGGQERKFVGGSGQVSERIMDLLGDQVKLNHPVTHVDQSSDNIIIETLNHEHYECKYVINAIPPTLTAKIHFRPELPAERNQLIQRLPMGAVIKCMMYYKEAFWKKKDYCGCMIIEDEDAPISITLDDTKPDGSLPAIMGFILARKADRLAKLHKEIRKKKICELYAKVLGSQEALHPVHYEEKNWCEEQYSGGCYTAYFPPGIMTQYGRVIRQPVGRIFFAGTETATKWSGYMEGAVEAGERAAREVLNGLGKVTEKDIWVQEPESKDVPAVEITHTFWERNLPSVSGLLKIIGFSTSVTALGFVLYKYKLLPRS
Procedure, shortened: (§1)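 HRP-coupled Amplex Red H2O2 assay, 50 mM sodium phosphate pH 7.4; compounds (8-point 1:3 series, final DMSO <1%) preincubated with enzyme 30 min at 37° C, then 200 uM Amplex Red, 1 U/mL HRP and substrate (MAO-A 0.5 mM tyramine; MAO-B 1 mM benzylamine) added. Resorufin fluorescence (ex 544/em 590 nm) read over 1-2 h; IC50 from four-parameter logistic fit.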

[3] = biological target: T4, recombinant human MAO-B (monoamine oxidase-B) (Homo sapiens, UniProt P27338); test: Activity on recombinant human MAO-B, method similar to the VAP-1 assay; conditions: substrate 1 mM benzylamine; read-out: Inhibitory Activity (IC50, nM) MAO-B
T4 construct: purchased Sigma-Aldrich
T4 sequence (P27338 1-520): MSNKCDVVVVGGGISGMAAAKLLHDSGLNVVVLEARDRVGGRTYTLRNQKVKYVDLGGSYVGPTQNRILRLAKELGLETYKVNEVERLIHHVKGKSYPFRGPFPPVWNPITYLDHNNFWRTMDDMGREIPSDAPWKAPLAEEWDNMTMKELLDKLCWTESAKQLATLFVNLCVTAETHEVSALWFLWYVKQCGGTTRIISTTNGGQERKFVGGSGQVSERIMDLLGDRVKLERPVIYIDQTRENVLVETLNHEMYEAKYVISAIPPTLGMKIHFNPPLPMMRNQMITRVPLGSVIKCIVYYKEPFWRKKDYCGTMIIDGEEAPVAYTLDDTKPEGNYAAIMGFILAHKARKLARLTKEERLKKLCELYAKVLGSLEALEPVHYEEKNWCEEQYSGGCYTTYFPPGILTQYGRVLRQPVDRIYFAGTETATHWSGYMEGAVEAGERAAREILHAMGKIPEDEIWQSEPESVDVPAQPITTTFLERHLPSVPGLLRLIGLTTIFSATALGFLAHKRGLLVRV
Procedure, shortened: as §1

| IC50 [1] [nM] | IC50 (recombinant human VAP-1) [nM] | IC50 [2] [nM] | IC50 [3] [nM] | Structure (SMILES) |
| --- | --- | --- | --- | --- |
| 230 | 0.4 | ≥ 100000 | < 10 | NC/C(=C\F)Cn1ncn(Cc2ccc(-c3ccc4oc(=O)[nH]c4c3)s2)c1=O [Example 72, 5-[5-(1-[(2E)-2-(aminomethyl)-3-fluoroprop-2-en-1-yl]-5-oxo-1,5-dihydro-4H-1,2,4-triazol-4-ylmethyl)thiophen-2-yl]-1,3-benzooxazol-2(3H)-one hydrochloride] |
| 93 | 0.2 | > 100000 | 6100 | CN1C(=O)Cc2cc(-c3ccc(Cn4cnn(C/C(=C/F)CN)c4=O)s3)cnc21 [Example 73, 5-[5-(1-[(2E)-2-(aminomethyl)-3-fluoroprop-2-en-1-yl]-5-oxo-1,5-dihydro-4H-1,2,4-triazol-4-ylmethyl)thiophen-2-yl]-1-methyl-1,3-dihydro-2H-pyrrolo[2,3-b]pyridin-2-one hydrochloride] |
| 630 | 0.2 | > 100000 | 4800 | Cc1cc(-c2ccc(Cn3cnn(C/C(=C/F)CN)c3=O)s2)cc2ccc(=O)[nH]c12 [Example 78, 6-[5-[[1-[(E)-2-(aminomethyl)-3-fluoro-allyl]-5-oxo-1,2,4-triazol-4-yl]methyl]-2-thienyl]-8-methyl-1H-quinolin-2-one] |
| 210 | 0.1 | > 100000 | 1900 | CN1C(=O)CCc2cc(-c3ccc(Cn4cnn(C/C(=C/F)CN)c4=O)s3)ccc21 [Example 79, 6-[5-(1-[(2E)-2-(aminomethyl)-3-fluoroprop-2-en-1-yl]-5-oxo-1,5-dihydro-4H-1,2,4-triazol-4-ylmethyl)thiophen-2-yl]-1-methyl-3,4-dihydroquinolin-2(1H)-one hydrochloride] |
| 380 | 0.2 | > 100000 | 6300 | NC/C(=C\F)Cn1ncn(Cc2ccc(-c3cc(F)c4c(c3)CCC(=O)N4)s2)c1=O [Example 80, 6-[5-[[1-[(E)-2-(aminomethyl)-3-fluoro-allyl]-5-oxo-1,2,4-triazol-4-yl]methyl]-2-thienyl]-8-fluoro-3,4-dihydro-1H-quinolin-2-one] |
| 300 | 0.1 | > 100000 | 6300 | NC/C(=C\F)Cn1ncn(Cc2ccc(-c3cc(F)c4[nH]c(=O)ccc4c3)s2)c1=O [Example 82, 6-[5-(1-[(2E)-2-(aminomethyl)-3-fluoroprop-2-en-1-yl]-5-oxo-1,5-dihydro-4H-1,2,4-triazol-4-ylmethyl)thiophen-2-yl]-8-fluoroquinolin-2(1H)-one hydrochloride] |

The next lines start with the compound.

| Structure (SMILES) | IC50 [1] [nM] | IC50 (recombinant human VAP-1) [nM] | IC50 [2] [nM] | IC50 [3] [nM] |
| --- | --- | --- | --- | --- |
| NC/C(=C\F)Cn1ncn(Cc2ccc(-c3ccc4c(c3)C(=O)NCC4)s2)c1=O [Example 74, 7-[5-(1-[(2E)-2-(aminomethyl)-3-fluoroprop-2-en-1-yl]-5-oxo-1,5-dihydro-4H-1,2,4-triazol-4-ylmethyl)thiophen-2-yl]-3,4-dihydroisoquinolin-1(2H)-one hydrochloride] | 620 | 0.3 | > 100000 | > 10000 |
| NC/C(=C\F)Cn1ncn(Cc2ccc(-c3ccc4c(c3)CCC(=O)N4)s2)c1=O [Example 75, 6-[5-(1-[(2E)-2-(aminomethyl)-3-fluoroprop-2-en-1-yl]-5-oxo-1,5-dihydro-4H-1,2,4-triazol-4-ylmethyl)thiophen-2-yl]-3,4-dihydroquinolin-2(1H)-one hydrochloride] | 950 | 0.3 | > 100000 | 2600 |
| Cc1cc(-c2ccc(Cn3cnn(C/C(=C/F)CN)c3=O)s2)cc2c1NC(=O)CC2 [Example 77, 6-[5-(1-[(2E)-2-(aminomethyl)-3-fluoroprop-2-en-1-yl]-5-oxo-1,5-dihydro-4H-1,2,4-triazol-4-ylmethyl)thiophen-2-yl]-8-methyl-3,4-dihydroquinolin-2(1H)-one hydrochloride] | 460 | 0.2 | > 100000 | 1300 |
| NC/C(=C\F)Cn1ncn(Cc2ccc(-c3cc4c(c(C(F)(F)F)c3)NC(=O)CC4)s2)c1=O [Example 81, 6-[5-[[1-[(E)-2-(aminomethyl)-3-fluoro-allyl]-5-oxo-1,2,4-triazol-4-yl]methyl]-2-thienyl]-8-(trifluoromethyl)-3,4-dihydro-1H-quinolin-2-one] | 68 | 0.18 | > 100000 | 430 |
| Cc1cc(-c2ccc(Cn3cnn(C/C(=C/F)CN)c3=O)s2)cc2c(C(F)(F)F)cc(=O)[nH]c12 [Example 83, 6-[5-[[1-[(E)-2-(aminomethyl)-3-fluoro-allyl]-5-oxo-1,2,4-triazol-4-yl]methyl]-2-thienyl]-8-methyl-4-(trifluoromethyl)-1H-quinolin-2-one] | 280 | 0.5 | 36000 | 650 |

Reference: patent US11780830B2, “Triazolone derivatives or salts thereof and pharmaceutical compositions comprising the same” (YUHAN CORPORATION, priority 2018, dated 2023)
